Results from ChEMBL document CHEMBL1687908, “Discovery of sulfated sterols from marine invertebrates as a new class of marine natural antagonists of farnesoid-X-receptor” (J Med Chem, 2011).
Active and inactive are the calls of the source.

Columns and labels:
Format in all cases: functional, cell-based
HepG2 = experiment: Inhibition of CDCA-induced FXR expression in human HepG2 cells after 18 hrs by luminometric analysis
[1] = target: T1, Bile acid receptor (Homo sapiens) (UniProt Q96RI1); experiment: Antagonist activity at FXR expressed in human HepG2 cells assessed as stabilization of the NCoR at the OSTalpha promoter at 50 uM after 18 hrs by chromatin immunoprecipitation
T1 sequence (whole entry): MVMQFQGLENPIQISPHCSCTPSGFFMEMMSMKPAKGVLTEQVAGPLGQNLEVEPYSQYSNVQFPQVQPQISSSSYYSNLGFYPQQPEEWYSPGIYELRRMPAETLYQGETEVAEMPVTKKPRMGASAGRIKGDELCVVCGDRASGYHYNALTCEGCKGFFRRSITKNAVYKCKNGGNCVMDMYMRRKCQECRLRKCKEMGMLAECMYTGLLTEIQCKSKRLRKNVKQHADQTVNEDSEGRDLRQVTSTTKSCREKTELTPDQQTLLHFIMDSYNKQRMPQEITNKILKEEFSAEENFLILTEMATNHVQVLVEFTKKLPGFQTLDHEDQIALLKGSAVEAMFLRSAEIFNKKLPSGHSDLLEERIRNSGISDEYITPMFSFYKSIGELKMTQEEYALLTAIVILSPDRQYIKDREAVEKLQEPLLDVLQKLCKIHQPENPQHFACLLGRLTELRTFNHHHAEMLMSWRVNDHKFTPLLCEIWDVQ

[2] = target: T1, Bile acid receptor (Homo sapiens); experiment: Antagonist activity at FXR in human HepG2 cells assessed as inhibition of CDCA-induced BSEP gene expression at 50 uM by real time PCR
[3] = target: T1, Bile acid receptor (Homo sapiens); experiment: Antagonist activity at FXR in human HepG2 cells assessed as inhibition of CDCA-induced Cyp7A1 gene expression at 50 uM by real time PCR
[4] = target: T1, Bile acid receptor (Homo sapiens); experiment: Antagonist activity at FXR in human HepG2 cells assessed as inhibition of CDCA-induced OSTbata gene expression at 50 uM by real time PCR
[5] = target: T1, Bile acid receptor (Homo sapiens); experiment: Antagonist activity at FXR in human HepG2 cells assessed as inhibition of CDCA-induced OSTalpha gene expression at 50 uM by real time PCR

C[C@H](CO)[C@@H](C)CC[C@@H](COS(=O)(=O)O)[C@H]1CC[C@H]2[C@@H]3CC[C@@H]4[C@H](O)[C@H](OS(=O)(=O)O)CC[C@]4(C)[C@H]3CC[C@]12C
active: inhibition (HepG2) Dose-dependent effect | Activity [1] | inhibition [2] | inhibition [3] | inhibition [4] | inhibition [5]
